Results taken from patent publication US20240142474A1, “Opsins as Chemosensory Receptors and Related Methods” (The Regents of the University of California, priority 2021, published 2024).
Entries after “also recorded” stand apart in the source; their conditions may differ.

How the values were obtained:
[1] = molecular target: T1, OPN3 (Mus musculus, UniProt Q9WUK7); assay: TANGO assay (beta-arrestin recruitment, luciferase reporter) in HTLA cells, OPN3; type: cell-based; conditions: 4 hours
T1 construct: expressed in transfected cells; host or cells: HTLA cells (HEK293 line with tTA-dependent luciferase reporter and beta-arrestin2-TEV fusion)
T1 sequence (Q9WUK7 whole entry, the tested form may be a part): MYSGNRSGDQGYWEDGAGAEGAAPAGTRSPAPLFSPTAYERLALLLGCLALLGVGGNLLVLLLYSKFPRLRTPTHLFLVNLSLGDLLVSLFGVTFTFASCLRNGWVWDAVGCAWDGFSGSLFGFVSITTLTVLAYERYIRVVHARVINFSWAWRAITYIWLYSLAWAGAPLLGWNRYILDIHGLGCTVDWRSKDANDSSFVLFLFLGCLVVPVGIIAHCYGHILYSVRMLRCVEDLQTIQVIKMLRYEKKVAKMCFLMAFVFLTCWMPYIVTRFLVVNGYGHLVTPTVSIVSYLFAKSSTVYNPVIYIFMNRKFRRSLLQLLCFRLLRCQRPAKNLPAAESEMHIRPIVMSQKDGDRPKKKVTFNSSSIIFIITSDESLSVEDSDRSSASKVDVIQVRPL
Source text: (§1) For example, in one implementation the chemosensory opsin activation detection element comprises a TANGO assay (Transcriptional Activation Following Arrestin Translocation), as known in the art, for example, as described by Kroeze et al., 2015. PRESTO-Tango as an open-source resource for interrogation the druggable human GPCRome. Nat Struct Mol Biol 22, 362-369. In the TANGO systems of the invention, a cell is engineered to express a chemosensory opsin in the form of a fusion protein, wherein the opsin fusion protein comprises an optional membrane trafficking signal (e.g. HA), an optional FLAG tag or like epitope to facilitate detection, and a transcriptional activator which induces the expression of a reporter gene, such as luciferase, wherein the transcriptional activator is joined to an intracellular portion of the opsin, for example, the […], by a cleavage sequence. The cells of the TANGO system are further engineered to express a second fusion protein comprising a beta-arrestin fused to a protease, for example, a TEV protease, wherein the protease is capable of cleaving the fusion protein at the cleavage site. The cells of the TANGO system are further engineered to express a reporter protein, e.g. luciferase, under the control of a transcriptional activator, for example, tetracycline-controlled transactivaor (tTA). Ligand binding to the opsin deployed in the TANGO system triggers a conformational change in the opsin that recruits the beta arrestin-protease fusion protein to the opsin, where proximity of the protease induces cleavage of the transcriptional activator, which trafficks to the nucleus and induces the expression of the reporter gene. The TANGO system advantageously allows direct quantification of opsin activation, independent of g protein activity.
(§2) Human transcriptomics data was mined to identify putative taste receptor proteins. […] However, the role of these opsins in taste perception has not been previously explored. TANGO detection elements employing each of these opsins, in both human and mouse isoforms, were created in HTLA cells (a HEK293 cell line stably expressing a tTA-dependent luciferase reporter and a β-arrestin2-TEV fusion gene), based on protocols in Kroeze et al., 2015. PRESTO-Tango as an open-source resource for interrogation of the druggable human GPCRome. Nat Struct Mol Biol 22, 362-369.
(§3) In the TANGO assay, the mouse opsin coding sequence with an N-terminal FLAG tag was synthesized. The construct was cloned into a TANGO vector (Addgene, Waterton MA) at the ClaI site (FLAG::opsin). The HTLA cells were transfected in a 6-well format with LIPOFECTAMINE 2000™ (Thermo Fisher Scientific, Inc, Waltham MA, USA) according to the manufacturer's instructions. 6-8 hours post transfection cells weret split 1:3 and the media was switched to DMEM+ 2.5% fetal bovine serum (Thermo Fisher Scientific Inc., Waltham MA, USA). Cells were allowed to grow for 48 hours before splitting the cells onto poly-L-lysine-coated 96-well clear, flat bottom white polystyrene plates in serum-free media. The next day, chemical solutions diluted in TANGO assay buffer (20 mM HEPES, 1× HBSS, pH 7.40) were added to the cells. After 4 hours, the medium and drug solutions were removed and replaced with […] per well of BRIGHTGLO™ reagent (Promega Corporation, Madison WI) diluted 20-fold with TANGO assay buffer. Plates were incubated for 20 minutes at room temperature in the dark before measuring luminescence with a plate reader (Molecular Devices, iD3). The normalized response was calculated using following formula: RLU (relative luminescence units)=test compound RLU−average vehicle control RLU.

[2] = molecular target: T2, OPN3 (Homo sapiens, UniProt Q9H1Y3); assay: Calcium flux GPCR activation assay with Fluo-8 dye, opsin-expressing HEK293T cells, OPN3; type: cell-based; conditions: Fluo-8 calcium flux, data not shown
T2 construct: expressed in transfected cells; host or cells: HEK293T
T2 sequence (Q9H1Y3 whole entry): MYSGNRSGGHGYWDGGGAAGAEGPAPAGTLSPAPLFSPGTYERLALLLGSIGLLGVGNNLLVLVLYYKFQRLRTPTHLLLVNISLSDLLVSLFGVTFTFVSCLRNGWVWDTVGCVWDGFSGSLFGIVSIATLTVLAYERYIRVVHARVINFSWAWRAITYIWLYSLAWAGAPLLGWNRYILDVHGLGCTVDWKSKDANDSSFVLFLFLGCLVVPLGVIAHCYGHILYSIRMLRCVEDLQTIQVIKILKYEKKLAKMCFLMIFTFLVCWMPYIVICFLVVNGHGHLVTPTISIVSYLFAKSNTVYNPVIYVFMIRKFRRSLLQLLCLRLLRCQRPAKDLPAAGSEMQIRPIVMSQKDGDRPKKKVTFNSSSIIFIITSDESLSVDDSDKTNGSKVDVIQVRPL
Method: (§4) These foregoing TANTO results were further confirmed using a second, a calcium flux GPCR activation assay employing Fluo-8 dye, as follows. For this intracellular Ca^2+ measurement, opsin-expressing HEK293T cells were seeded onto 96-well plates (4×10^4 cells per well) in 100 μl of culture medium with reduced serum contents (0.5% of FBS) per well and incubated overnight under standard culture conditions. [Ca2+]i level was assessed the next day after stimulation with bitter compounds used at a different concentration with the SCREEN QUEST Fluo-8 No Wash Calcium Assay Kit (AAT Bioquest, Inc., Sunnyvale, CA, USA) according to the supplier's protocol. Calcium flux was monitored simultaneously by the change in fluorescence (Ex/Em=490/520 nm) following stimulation and with respect to the background fluorescence. [Ca^2+]i was monitored for a period of three minutes, starting before the addition of compounds to the wells and continuing during measurement of the fluorescent signal following cells' stimulation. The obtained fluorescence reads were normalized to the results obtained after stimulation of the cells with the compound solvent.

[3] = test system: OPN3 knockout mice; assay: Mouse brief-access taste assay (lickometer), OPN3 knockout mice compared to wild type; type: in vivo; conditions: water restricted
Method: Knockout mice were obtained for OPN1SW and OPN3. Two independent OPN3 knockout mice lines were tested for reaction to naringin by a mouse taste preference assay. A Lickometer device (MS-160, Di Log Instruments, Inc.,Tallahassee, FL, USA) was used to train mice and then measure their licking responses to different tastants in brief-access trials. On a given trial, each sipper tube was filled with a solution and made available to a mouse via a small port that opened to a metal/plexiglass chamber housing the animal. The mouse chamber of the lickometer was modified for these studies by adding a plexiglass barrier that restricted the free movement of animals to an approximate 10 by 15 cm area facing the fluid access port. A computer running software that communicated with the lickometer recorded tongue contacts with the metal tip of the sipper tube during licking and the time intervals (precision=1 ms) between consecutive licks (inter-lick intervals). The amount of time that the sipper tube was available through the access port could be programmed and was controlled by the opening of a normally closed, computer-actuated shutter. This feature facilitated presentation of solutions to a mouse for only a few seconds to support measurements of brief-access licking behavior. By indexing initial licking responses to stimuli over short periods, brief-access procedures intend to focus on oral sensory influences and avoid any post-ingestive effect. Groups of three to four mice were run in these studies at one time. Groups always included equal numbers of mutant and wild-type mice to control for temporal factors.
Training. Mice were restricted from drinking water for 20-22 hours prior to the onset of training. During training, experimentally naive mice learned to receive fluid in the lickometer over a 3-day period. On the first and second day of training, mice were given 30 minutes free access to a single sipper tube of water to familiarize them with accessing fluid in the lickometer device. Each 30 minute period began when the mouse made its first lick on the sipper tube; mice were allowed 30 minutes to make their first lick. On the third day of training, mice were presented with 10 second presentations (i.e., trials) of water to familiarize them with receiving and consuming fluid under a brief-access procedure in the lickometer. On each trial, the shutter that blocked access to the sipper tube was opened and mice were given 10 seconds to lick, and lick data were recorded by the lickometer computer. […]
Testing. […] For studies, individual Opn3KO, Opn1swKO, Opn4KO, Opn5KO and wild-type mice were evaluated for brief-access licking responses with different agonists. […]

[4] = test system: TRPM5 knockout mice; assay: Mouse brief-access taste assay (lickometer), TRPM5 knockout mice compared to wild type; type: in vivo; conditions: TRPM5 knockout (taste blind) mice, water restricted
[5] = molecular target: T3, OPN1SW (Mus musculus, UniProt P51491); assay: TANGO assay (beta-arrestin recruitment, luciferase reporter) in HTLA cells, OPN1SW; type: cell-based; conditions: 4 hours
T3 construct: expressed in transfected cells; host or cells: HTLA cells (HEK293 line with tTA-dependent luciferase reporter and beta-arrestin2-TEV fusion)
T3 sequence (P51491 1-346): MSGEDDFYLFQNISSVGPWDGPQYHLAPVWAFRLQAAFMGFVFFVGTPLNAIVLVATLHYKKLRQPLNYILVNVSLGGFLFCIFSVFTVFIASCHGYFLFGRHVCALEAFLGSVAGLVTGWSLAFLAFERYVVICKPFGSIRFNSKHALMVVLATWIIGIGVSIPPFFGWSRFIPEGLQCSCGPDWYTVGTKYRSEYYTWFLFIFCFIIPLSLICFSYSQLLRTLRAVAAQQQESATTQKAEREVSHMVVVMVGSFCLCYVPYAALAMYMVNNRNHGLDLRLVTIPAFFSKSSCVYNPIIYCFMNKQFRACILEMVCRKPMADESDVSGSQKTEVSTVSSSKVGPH
Source text: as §1, §2, §3

[6] = molecular target: T4, OPN1SW (Homo sapiens, UniProt P03999); assay: Calcium flux GPCR activation assay with Fluo-8 dye, opsin-expressing HEK293T cells, OPN1SW; type: cell-based; conditions: Fluo-8 calcium flux, data not shown
T4 construct: expressed in transfected cells; host or cells: HEK293T
T4 sequence (P03999 1-345): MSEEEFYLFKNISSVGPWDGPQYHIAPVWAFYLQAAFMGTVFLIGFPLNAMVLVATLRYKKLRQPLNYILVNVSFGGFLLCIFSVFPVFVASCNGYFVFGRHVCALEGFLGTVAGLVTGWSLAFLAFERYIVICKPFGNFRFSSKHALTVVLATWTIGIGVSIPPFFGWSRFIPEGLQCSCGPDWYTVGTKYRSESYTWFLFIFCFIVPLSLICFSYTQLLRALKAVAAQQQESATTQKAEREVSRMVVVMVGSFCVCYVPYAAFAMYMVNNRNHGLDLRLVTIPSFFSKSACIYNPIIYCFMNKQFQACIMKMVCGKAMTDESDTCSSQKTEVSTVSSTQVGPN
Method: as §4

For `C[C@@H]1O[C@@H](O[C@H]2[C@H](Oc3cc(O)c4c(c3)O[C@H](c3ccc(O)cc3)CC4=O)O[C@H](CO)[C@@H](O)[C@@H]2O)[C@H](O)[C@H](O)[C@H]1O` [naringin], the “activation of OPN3, fold-change from baseline luciferase signal vs. log concentration of tastant” value [1] was “activation of OPN3; also recorded: activated; also recorded: potent activator of OPN3”, the “activation of calcium dye OPN3 detection elements” value [2] was “significantly activated in a concentration dependent manner” and the “aversion to the bitter flavor (lick ratio), OPN3 knockout mice compared to wild type mice” value [3] was “reduced aversion”. For the same molecule, the “aversive response to the bitter flavor (lick ratio), TRPM5 knockout mice” value [4] was “lost the aversive response”.

With `O=c1c(-c2ccc(O)cc2)coc2cc(O)cc(O)c12` [genistein] the “activation of OPN1SW, fold-change from baseline luciferase signal vs. log concentration of tastant” value [5] was “activated”, the “activation of OPN1SW, fold-change from baseline luciferase signal vs. log concentration of tastant” value ([5]; listed as genestein) was “activation of OPN1SW” and the “activation of calcium dye OPN1SW detection elements” value [6] was “significantly activated in a concentration dependent manner”.

With `Cn1cnc2c1c(=O)[nH]c(=O)n2C` [theobromine] the “activation of OPN1SW, fold-change from baseline luciferase signal vs. log concentration of tastant” value [5] was “activated; also recorded: activation of OPN1SW” and the “activation of calcium dye OPN1SW detection elements” value [6] was “significantly activated in a concentration dependent manner”.
